# pIC50: −log10 of the molar value.
# Tests used:
# [1] = target: T1, full length G2019 human LRRK2 (Homo sapiens, UniProt Q5S007, R50H); assay: Full length G2019 human LRRK2 inhibition mass spectrometry assay; type: biochemical; settings: LRRKtide to phospho-LRRKtide conversion, RapidFire MS, 2 mM ATP
# T1 construct: made in house; host or cells: HEK293 6E cells transduced with BacMam virus (virus generated in Sf9 cells)
# Procedure, shortened: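 Inhibition taken as reduced LRRKtide phosphorylation, quantified by RapidFire-coupled triple-quadrupole MS as product/(product+substrate) peak area. Reaction: 2 mM ATP, 25 μM peptide, ~25 nM full-length G2019 Flag-LRRK2, Hepes pH 7.2 buffer, room temperature for 1 h. 11-point 1-in-4 dilutions from 100 μM; logistic fit gives IC50, reported as pIC50.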
# [2] = target: T2, LRRK2 kinase in SH-SY5Y cells over-expressing recombinant full length LRRK2 (Homo sapiens, UniProt Q5S007); assay: Recombinant cellular LRRK2 AlphaScreen assay (LRRK2 Ser935 phosphorylation); type: cell-based; settings: 60 min
# T2 construct: A BacMam virus expressing full length recombinant LRRK2 was purchased from Invitrogen; host or cells: SH-SY5Y human neuroblastoma cells transduced with BacMam LRRK2 virus
# Procedure, shortened: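 Read-out is AlphaScreen of LRRK2 pSer935 over total LRRK2 in lysates of SH-SY5Y cells over-expressing full-length LRRK2 via BacMam (24 h transduction). Cells were exposed 60 min at 37 °C to an 11-point 1-in-4 dilution series starting at 10 uM; sigmoidal fit.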
# T2 sequence (Q5S007 whole entry): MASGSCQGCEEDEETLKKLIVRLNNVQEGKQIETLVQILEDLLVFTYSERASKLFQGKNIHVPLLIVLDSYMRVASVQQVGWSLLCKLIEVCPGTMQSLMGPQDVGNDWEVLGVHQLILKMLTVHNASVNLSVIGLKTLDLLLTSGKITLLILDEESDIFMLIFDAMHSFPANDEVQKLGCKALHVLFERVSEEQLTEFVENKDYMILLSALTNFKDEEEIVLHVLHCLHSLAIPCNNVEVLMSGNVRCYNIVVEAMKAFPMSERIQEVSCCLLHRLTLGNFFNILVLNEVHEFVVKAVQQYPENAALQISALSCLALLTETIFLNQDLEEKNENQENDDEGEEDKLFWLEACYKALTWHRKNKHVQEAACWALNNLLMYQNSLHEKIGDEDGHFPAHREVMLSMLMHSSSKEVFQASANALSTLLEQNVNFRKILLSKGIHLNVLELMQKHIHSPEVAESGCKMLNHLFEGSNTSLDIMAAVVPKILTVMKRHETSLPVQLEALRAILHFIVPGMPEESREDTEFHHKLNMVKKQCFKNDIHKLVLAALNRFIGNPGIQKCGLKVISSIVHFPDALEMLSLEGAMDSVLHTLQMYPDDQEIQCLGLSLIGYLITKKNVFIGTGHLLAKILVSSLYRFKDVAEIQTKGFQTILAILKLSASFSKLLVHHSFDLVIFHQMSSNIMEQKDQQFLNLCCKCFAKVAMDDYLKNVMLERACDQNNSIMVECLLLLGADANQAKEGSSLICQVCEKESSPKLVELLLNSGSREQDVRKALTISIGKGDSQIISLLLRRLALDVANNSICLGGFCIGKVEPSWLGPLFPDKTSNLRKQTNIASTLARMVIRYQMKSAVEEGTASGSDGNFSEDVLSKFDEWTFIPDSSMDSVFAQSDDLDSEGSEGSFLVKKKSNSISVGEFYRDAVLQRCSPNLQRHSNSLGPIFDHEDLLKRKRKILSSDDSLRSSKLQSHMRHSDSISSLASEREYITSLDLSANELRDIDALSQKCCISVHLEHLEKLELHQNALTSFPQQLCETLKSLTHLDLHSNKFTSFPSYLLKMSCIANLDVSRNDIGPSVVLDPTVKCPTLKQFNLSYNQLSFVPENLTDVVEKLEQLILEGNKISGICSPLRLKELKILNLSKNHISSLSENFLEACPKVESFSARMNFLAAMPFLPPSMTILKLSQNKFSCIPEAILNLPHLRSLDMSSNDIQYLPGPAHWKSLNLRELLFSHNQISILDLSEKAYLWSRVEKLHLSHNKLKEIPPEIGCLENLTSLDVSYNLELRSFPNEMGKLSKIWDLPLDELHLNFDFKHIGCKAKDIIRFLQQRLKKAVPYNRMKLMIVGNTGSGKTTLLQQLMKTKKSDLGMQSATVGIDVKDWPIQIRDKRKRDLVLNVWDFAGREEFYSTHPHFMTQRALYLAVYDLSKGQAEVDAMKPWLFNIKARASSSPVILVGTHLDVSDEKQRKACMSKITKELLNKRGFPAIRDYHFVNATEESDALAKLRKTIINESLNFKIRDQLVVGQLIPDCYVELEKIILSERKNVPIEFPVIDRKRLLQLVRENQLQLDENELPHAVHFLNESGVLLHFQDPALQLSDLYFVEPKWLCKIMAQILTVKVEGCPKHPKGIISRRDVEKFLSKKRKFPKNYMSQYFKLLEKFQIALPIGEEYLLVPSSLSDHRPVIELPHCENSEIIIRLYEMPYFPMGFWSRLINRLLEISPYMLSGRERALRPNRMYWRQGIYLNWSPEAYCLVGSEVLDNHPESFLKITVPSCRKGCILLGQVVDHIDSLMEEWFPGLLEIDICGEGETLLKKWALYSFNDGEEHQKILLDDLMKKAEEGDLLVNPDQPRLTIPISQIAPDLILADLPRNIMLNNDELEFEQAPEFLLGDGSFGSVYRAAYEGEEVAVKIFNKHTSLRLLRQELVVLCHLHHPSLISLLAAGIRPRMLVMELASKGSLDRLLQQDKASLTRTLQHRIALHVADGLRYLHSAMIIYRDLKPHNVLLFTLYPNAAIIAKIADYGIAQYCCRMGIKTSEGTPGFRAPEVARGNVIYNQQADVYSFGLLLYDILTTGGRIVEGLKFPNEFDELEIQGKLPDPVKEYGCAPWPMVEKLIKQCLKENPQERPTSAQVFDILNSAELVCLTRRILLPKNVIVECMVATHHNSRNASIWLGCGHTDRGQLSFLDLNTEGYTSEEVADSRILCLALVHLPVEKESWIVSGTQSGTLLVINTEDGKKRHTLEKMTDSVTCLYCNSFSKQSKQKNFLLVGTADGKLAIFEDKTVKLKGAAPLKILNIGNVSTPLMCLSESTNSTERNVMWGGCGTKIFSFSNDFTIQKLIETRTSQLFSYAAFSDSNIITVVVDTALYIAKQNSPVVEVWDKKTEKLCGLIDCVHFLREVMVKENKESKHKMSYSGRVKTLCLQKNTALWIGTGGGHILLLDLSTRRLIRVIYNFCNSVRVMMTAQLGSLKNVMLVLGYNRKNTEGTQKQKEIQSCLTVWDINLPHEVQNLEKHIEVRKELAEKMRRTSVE
# T1 sequence (Q5S007 with tags, fused parts or gaps R50H): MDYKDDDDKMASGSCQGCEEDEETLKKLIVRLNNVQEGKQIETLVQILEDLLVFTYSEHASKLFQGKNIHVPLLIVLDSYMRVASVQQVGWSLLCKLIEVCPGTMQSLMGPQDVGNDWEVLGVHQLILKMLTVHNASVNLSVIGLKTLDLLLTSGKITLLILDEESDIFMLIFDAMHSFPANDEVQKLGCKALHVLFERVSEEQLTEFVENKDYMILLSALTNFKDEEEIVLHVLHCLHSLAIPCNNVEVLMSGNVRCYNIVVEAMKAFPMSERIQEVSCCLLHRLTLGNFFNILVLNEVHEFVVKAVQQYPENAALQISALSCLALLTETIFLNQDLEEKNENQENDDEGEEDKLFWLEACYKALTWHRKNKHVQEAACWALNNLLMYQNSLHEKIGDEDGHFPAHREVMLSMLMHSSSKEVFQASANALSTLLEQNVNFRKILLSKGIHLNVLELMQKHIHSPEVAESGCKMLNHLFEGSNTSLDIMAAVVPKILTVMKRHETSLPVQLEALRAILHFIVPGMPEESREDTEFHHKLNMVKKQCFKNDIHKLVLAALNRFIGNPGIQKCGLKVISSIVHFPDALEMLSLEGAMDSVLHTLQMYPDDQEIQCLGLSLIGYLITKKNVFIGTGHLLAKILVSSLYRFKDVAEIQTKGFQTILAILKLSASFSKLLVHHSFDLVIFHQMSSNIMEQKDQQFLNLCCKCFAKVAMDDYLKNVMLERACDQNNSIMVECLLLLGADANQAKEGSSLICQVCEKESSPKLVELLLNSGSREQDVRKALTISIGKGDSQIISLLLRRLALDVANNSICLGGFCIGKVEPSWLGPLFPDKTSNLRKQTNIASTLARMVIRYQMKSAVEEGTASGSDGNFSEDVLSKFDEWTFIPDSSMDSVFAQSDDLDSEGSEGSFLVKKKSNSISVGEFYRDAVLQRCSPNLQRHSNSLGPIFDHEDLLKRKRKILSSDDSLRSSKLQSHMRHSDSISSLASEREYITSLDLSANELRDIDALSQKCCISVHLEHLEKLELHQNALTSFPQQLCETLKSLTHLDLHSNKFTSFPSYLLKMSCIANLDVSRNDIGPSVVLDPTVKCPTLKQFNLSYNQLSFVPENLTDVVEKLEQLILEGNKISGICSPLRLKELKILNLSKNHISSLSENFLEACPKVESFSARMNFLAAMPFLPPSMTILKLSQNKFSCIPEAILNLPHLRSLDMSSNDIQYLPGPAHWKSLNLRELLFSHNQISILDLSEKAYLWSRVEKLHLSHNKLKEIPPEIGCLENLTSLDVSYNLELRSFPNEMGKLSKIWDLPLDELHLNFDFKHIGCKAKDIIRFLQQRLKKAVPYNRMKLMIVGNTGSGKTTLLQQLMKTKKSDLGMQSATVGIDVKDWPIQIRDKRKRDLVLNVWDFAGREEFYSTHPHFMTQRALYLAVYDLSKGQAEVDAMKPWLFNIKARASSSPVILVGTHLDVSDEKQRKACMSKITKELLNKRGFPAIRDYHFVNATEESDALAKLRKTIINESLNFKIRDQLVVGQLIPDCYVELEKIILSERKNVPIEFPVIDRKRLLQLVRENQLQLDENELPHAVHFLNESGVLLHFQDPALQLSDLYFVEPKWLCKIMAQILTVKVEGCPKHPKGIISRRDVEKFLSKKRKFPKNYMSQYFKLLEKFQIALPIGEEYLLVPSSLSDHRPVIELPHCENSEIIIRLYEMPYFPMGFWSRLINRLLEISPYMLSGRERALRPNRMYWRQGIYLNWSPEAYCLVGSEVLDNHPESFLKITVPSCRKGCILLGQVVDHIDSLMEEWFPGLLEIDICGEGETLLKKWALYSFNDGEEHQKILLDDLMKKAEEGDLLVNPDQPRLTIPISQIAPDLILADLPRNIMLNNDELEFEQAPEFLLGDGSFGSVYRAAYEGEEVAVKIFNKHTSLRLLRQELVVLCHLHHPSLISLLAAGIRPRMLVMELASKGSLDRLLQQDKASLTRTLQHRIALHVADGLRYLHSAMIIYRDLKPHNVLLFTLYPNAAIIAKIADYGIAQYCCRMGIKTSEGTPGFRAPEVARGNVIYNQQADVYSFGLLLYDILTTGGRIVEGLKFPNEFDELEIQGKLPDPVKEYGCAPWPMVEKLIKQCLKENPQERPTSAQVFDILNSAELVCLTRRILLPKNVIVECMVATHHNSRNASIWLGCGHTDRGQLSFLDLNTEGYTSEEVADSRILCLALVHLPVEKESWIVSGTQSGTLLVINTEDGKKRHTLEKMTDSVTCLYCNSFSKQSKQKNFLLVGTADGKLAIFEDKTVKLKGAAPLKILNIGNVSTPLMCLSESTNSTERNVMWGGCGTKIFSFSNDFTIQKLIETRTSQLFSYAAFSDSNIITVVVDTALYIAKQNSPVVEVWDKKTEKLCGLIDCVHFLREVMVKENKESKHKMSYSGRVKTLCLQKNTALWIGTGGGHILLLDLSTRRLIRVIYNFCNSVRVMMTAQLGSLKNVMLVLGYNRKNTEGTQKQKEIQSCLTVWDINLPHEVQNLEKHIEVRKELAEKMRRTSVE
pIC50 [1],pIC50 [2],SMILES
≥ 7.00,≥ 7.00,"Cc1c2c(nn1C1CCN(C3COC3)CC1F)OCCCNc1nc(ncc1Cl)N2 (single isomer, unassigned) [E61, trans-14-chloro-5-[3-fluoro-1-(oxetan-3-yl)piperidin-4-yl]-4-methyl-8-oxa-2,5,6,12,16,17-hexaazatricyclo[11.3.1.0^3,7]heptadeca-1(16),3,6,13(17),14-pentaene]"
≥ 7.00,≥ 7.00,"Cc1c2c(nn1C1CCOCC1)OCC(F)C(CF)Nc1nc(ncc1Cl)N2 (stereo not drawn) [E391, 14-Chloro-10-fluoro-11-(fluoromethyl)-4-methyl-5-(oxan-4-yl)-8-oxa-2,5,6,12,16,17-hexaazatricyclo[11.3.1.0^3,7]heptadeca-1(16),3,6,13(17),14-pentaene]"
≥ 7.00,≥ 7.00,"Cc1c2c(nn1C1CCN(C3COC3)CC1(F)F)OCCCNc1nc(ncc1Cl)N2 (single isomer, unassigned) [E406, 14-Chloro-5-[3,3-difluoro-1-(oxetan-3-yl)piperidin-4-yl]-4-methyl-8-oxa-2,5,6,12,16,17-hexaazatricyclo[11.3.1.0^3,7]heptadeca-1(16),3,6,13(17),14-pentaene]"
≥ 7.00,≥ 7.00,"Cc1c2c(nn1C1CCOCC1)OCCC(C)Nc1nc(ncc1Br)N2 (single isomer, unassigned) [E30, 14-bromo-4,11-dimethyl-5-(oxan-4-yl)-8-oxa-2,5,6,12,16,17-hexaaza tricyclo[11.3.1.0^3,7]heptadeca-1(16),3,6,13(17),14-pentaene]"
≥ 7.00,≥ 7.00,"COC1CNc2nc(ncc2Cl)Nc2c(nn(CC3CCOCC3)c2C)OC1 (single isomer, unassigned) [E274, 14-Chloro-10-methoxy-4-methyl-5-(oxan-4-ylmethyl)-8-oxa-2,5,6,12,16,17-hexaazatricyclo[11.3.1.0^3,7] heptadeca-1(16),3,6,13(17),14-pentaene]"
≥ 7.00,≥ 7.00,"Cc1c2c(nn1C(C)(C)C)OCC[C@@H](C)Nc1nc(ncc1Cl)N2 [E417, (11R)-5-tert-Butyl-14-chloro-4,11-dimethyl-8-oxa-2,5,6,12,16,17-hexaazatricyclo[11.3.1.0^3,7]heptadeca-1(16),3,6,13(17),14-pentaene]"
≥ 7.00,≥ 7.00,"Cc1c2c(nn1C1CCC(C)CC1)OCCC(C)Nc1nc(ncc1Cl)N2 (single isomer, unassigned) [E259, 14-Chloro-4,11-dimethyl-5-(4-methylcyclohexyl)-8-oxa-2,5,6,12,16,17-hexaazatricyclo[11.3.1.0^3,7] heptadeca-1(16),3,6,13(17),14-pentaene]"
≥ 7.00,≥ 7.00,"C[C@@H]1CCOc2nn(C3CN(C4COC4)C3)c(Cl)c2Nc2ncc(Cl)c(n2)N1 [E427, (11R)-4,14-Dichloro-11-methyl-5-[1-(oxetan-3-yl)azetidin-3-yl]-8-oxa-2,5,6,12,16,17-hexaazatricyclo[11.3.1.0^3,7]heptadeca-1(16),3,6,13(17),14-pentaene]"
≥ 7.00,≥ 7.00,"Cc1c2c(nn1C1CCOCC1)OCCC(C1CC1)Nc1nc(ncc1Cl)N2 (single isomer, unassigned) [E293, 14-Chloro-11-cyclopropyl-4-methyl-5-(oxan-4-yl)-8-oxa-2,5,6,12,16,17-hexaazatricyclo[11.3.1.0^3,7]heptadeca-1(16),3,6,13(17),14-pentaene]"
≥ 7.00,≥ 7.00,"Cc1c2c(nn1C1CCC(N3C[C@H]4C[C@@H]3CO4)CC1)OCCCNc1nc(ncc1Cl)N2 (single isomer, unassigned) [E48]"
≥ 7.00,≥ 7.00,"Cc1c2c(nn1C1CC(N3CCOCC3)C1)OCC[C@@H](C)Nc1nc(ncc1Cl)N2 (stereo partly drawn) [E106, (11R)-14-chloro-4,11-dimethyl-5-[3-(morpholin-4-yl)cyclobutyl]-8-oxa-2,5,6,12,16,17-hexaazatricyclo[11.3.1.0^3,7]heptadeca-1(16),3,6,13(17),14-pentaene]"
≥ 7.00,≥ 7.00,"Cc1c2c(nn1C1CCC(O)CC1)OCCCNc1nc(ncc1Cl)N2 (single isomer, unassigned) [E90, 4-{14-chloro-4-methyl-8-oxa-2,5,6,12,16,17-hexaazatricyclo[11.3.1.0^3,7]heptadeca-1(16),3,6,13(17),14-pentaen-5-yl}cyclohexan-1-ol]"
4.00,≥ 7.00,"Cc1c2c(nn1C1CC(N3CCC(F)(F)C3)C1)OCCCNc1nc(ncc1Cl)N2 (stereo not drawn) [E312, 14-Chloro-5-[3-(3,3-difluoropyrrolidin-1-yl)cyclobutyl]-4-methyl-8-oxa-2,5,6,12,16,17-hexaazatricyclo[11.3.1.0^3,7] heptadeca-1(16),3,6,13(17),14-pentaene]"
≥ 7.00,≥ 7.00,"Cc1c2c(nn1C1CCOCC1)OCCCNc1nc(ncc1Br)N2 [E367, 14-Bromo-4-methyl-5-(oxan-4-yl)-8-oxa-2,5,6,12,16,17-hexaaza tricyclo[11.3.1.0^3,7]heptadeca-1(16),3,6,13(17),14-pentaene]"
≥ 7.00,≥ 7.00,"Cc1c2c(nn1C(C)C1CCOCC1)OCCCNc1nc(ncc1Cl)N2 (single isomer, unassigned) [E186, 14-Chloro-4-methyl-5-[1-(oxan-4-yl)ethyl]-8-oxa-2,5,6,12,16,17-hexaazatricyclo[11.3.1.0^3,7]heptadeca-1(16), 3,6,13(17),14-pentaene]"
≥ 7.00,≥ 7.00,"COC1CNc2nc(ncc2Cl)Nc2c(nn(C3CC(C)OC(C)C3)c2C)OC1 (single isomer, unassigned) [E198, 14-Chloro-5-(2,6-dimethyloxan-4-yl)-10-methoxy-4-methyl-8-oxa-2,5,6,12,16,17-hexaazatricyclo[11.3.1.0^3,7] heptadeca-1(16),3,6,13(17),14-pentaene]"
≥ 7.00,≥ 7.00,"CCC1CCOc2nn(C3CCOCC3)c(C)c2Nc2ncc(Cl)c(n2)N1 (single isomer, unassigned) [E20, 14-chloro-11-ethyl-4-methyl-5-(oxan-4-yl)-8-oxa-2,5,6,12,16,17-hexaazatricyclo[11.3.1.0^3,7]heptadeca-1(16),3,6,13(17),14-pentaene]"
≥ 7.00,≥ 7.00,"Cc1c2c(nn1C1CC(N3CCOCC3)C1)OCCCNc1nc(ncc1Cl)N2 (stereo not drawn) [E45, 14-Chloro-4-methyl-5-[3-(morpholin-4-yl)cyclobutyl]-8-oxa-2,5,6,12,16,17-hexaaza tricyclo[11.3.1.0^3,7]heptadeca-1(16),3,6,13(17),14-pentaene]"
≥ 7.00,≥ 7.00,"Clc1cnc2nc1NCCCOc1nn(C3CCOCC3)c(Cl)c1N2 [E13, 4,14-Dichloro-5-(oxan-4-yl)-8-oxa-2,5,6,12,16,17-hexaazatricyclo[11.3.1.0^3,7]heptadeca-1(16),3,6,13(17),14-pentaene]"
≥ 7.00,≥ 7.00,"Cc1c2c(nn1C1COC1)OCC[C@@H](C)Nc1nc(ncc1Cl)N2 [E52, (11R)-14-chloro-4,11-dimethyl-5-(oxetan-3-yl)-8-oxa-2,5,6,12,16,17-hexaazatricyclo [11.3.1.0^3,7]heptadeca-1(16),3,6,13(17),14-pentaene]"
≥ 7.00,≥ 7.00,"Cc1c2c(nn1C1CCOCC1F)OC[C@@H](F)[C@@H](C)Nc1nc(ncc1Cl)N2 (stereo partly drawn) [E387, (10S, 11R)-14-Chloro-10-fluoro-5-(3-fluorooxan-4-yl)-4,11-dimethyl-8-oxa-2,5,6,12,16,17-hexaazatricyclo[11.3.1.0^3,7] heptadeca-1(16),3,6,13(17),14-pentaene]"
≥ 7.00,≥ 7.00,"Cc1c2c(nn1C1CCCOC1)OCC(C)CNc1nc(ncc1Cl)N2 (single isomer, unassigned) [E306, 14-Chloro-4,10-dimethyl-5-(oxan-3-yl)-8-oxa-2,5,6,12,16,17-hexaazatricyclo[11.3.1.0^3,7]heptadeca-1(16),3,6, 13(17),14-pentaene]"
≥ 7.00,≥ 7.00,"Cc1c2c(nn1C1CCOCC1)OCCC(C)Nc1nc(ncc1Cl)N2 (stereo not drawn) [E5, 14-Chloro-4,11-dimethyl-5-(oxan-4-yl)-8-oxa-2,5,6,12,16,17-hexaazatricyclo [11.3.1.0^3,7]heptadeca-1(16),3,6,13(17),14-pentaene]"
≥ 7.00,≥ 7.00,CCOC(=O)C(C)(C)n1nc2c(c1C)Nc1ncc(Cl)c(n1)NCCCO2 [E188]
≥ 7.00,≥ 7.00,"C=Cc1cnc2nc1N[C@H](C)CCOc1nn(C3CCOCC3)c(C)c1N2 [E389, (11R)-14-Ethenyl-4,11-dimethyl-5-(oxan-4-yl)-8-oxa-2,5,6,12,16,17-hexaazatricyclo[11.3.1.0^3,7]heptadeca-1(16)53,6,13(17),14-pentaene]"
≥ 7.00,≥ 7.00,"C[C@@H]1CCOc2n[nH]c(Cl)c2Nc2ncc(Cl)c(n2)N1 [E397, (11R)-4,14-Dichloro-11-methyl-8-oxa-2,5,6,12,16,17-hexaazatricyclo[11.3.1.0^3,7]heptadeca-1(16),3,6,13(17),14-pentaene]"
≥ 7.00,≥ 7.00,"Cc1c2c(nn1C1CCOC(C)C1)OCCC(C(F)F)Nc1nc(ncc1Cl)N2 (stereo not drawn) [E386, 14-Chloro-11-(difluoromethyl)-4-methyl-5-(2-methyloxan-4-yl)-8-oxa-2,5,6,12,16,17-hexaazatricyclo[11.3.1.0^3,7]heptadeca-1(16),3,6,13(17),14-pentaene]"

# From patent US20200392158A1, “INHIBITORS OF LEUCINE RICH REPEAT KINASE 2” (GLAXOSMITHKLINE INTELLECTUAL PROPERTY DEVELOPMENT LIMITED, priority 2017, published 2020)
